Laboratory results: patent US8273775B2, “Non-steroidal brassinosteroid mimetic” (priority 2006, dated 2012)

System: gene expression in Col-0 seedling shoots
Assay: Microarray analysis (ATH1 Affymetrix) after BL or abrasin treatment
Format: in vivo, Arabidopsis
Conditions: 30 min
Method: FIG. 14: Clustering of gene expression profiles by QT-clust analysis. Clusters illustrating the major patterns of the data sets. Points: BIK-30: 30 μM abrasin 30 min; BL-30: 1 μM brassinolide 30 min; DMSO-30: control DMSO 30 min; BIK-120: 30 μM abrasin 120 min; BL-120: 1 μM brassinolide 120 min; DMSO-120: control DMSO 120 min.
Col-0 seeds were germinated vertically on ½ MS medium for 7 days under 16 h light/8 h dark cycles. The seedlings were overlaid with liquid ½ MS medium containing 1 μM brassinolide (BL, Fuji Chemical Industries, Ltd., Toyama, Japan), 30 μM abrasin (BIK, ChemBridge Corporation) and DMSO and treated for 30 and 120 min. The shoot parts were collected for RNA isolation. All sampling points were performed in three independent experiments. RNA was extracted using RNeasy kit (Qiagene). […] total RNA per array was used to hybridise the ATH1 Affymetrix Arabidopsis arrays according to standard procedure. The overrepresentation analyses were performed using BiNGO software (Maere et al., 2005).
We performed a microarray analysis using the Arabidopsis whole genome chip (Affymetix) to determine whether abrasin activated the expression of BR-inducible genes at transcriptional level. Wild-type Col-0 seedlings were exposed to 1 μM BL, 30 μM ABRASIN and DMSO (mock-treatment) for two time points (30 min and 120 min) and the shoot parts were collected for RNA isolation. The analysis of the variance of the normalized gene expression data took in account the variability parameters affecting the expression level: type of hormone treatment, duration of treatment and the interaction between these two.

## CC(C)[C@H](C)[C@@H](O)[C@H](O)[C@@H](C)[C@H]1CC[C@H]2[C@@H]3COC(=O)[C@H]4C[C@H](O)[C@H](O)C[C@]4(C)[C@H]3CC[C@]12C [BL, brassinolide, reference compound]
  Fold-change AT4G16563 aspartyl protease family protein: 1.44
  Fold-change AT4G16670 expressed protein: 0.78
  Fold-change AT4G16780 homeobox-leucine zipper protein 4 (HAT4)/HD-ZIP protein: 0.62
  Fold-change AT4G17250 expressed protein: 0.86
  Fold-change AT4G17460 homeobox-leucine zipper protein 1 (HAT1)/HD-ZIP protein 1: 0.54
  Fold-change AT4G21510 F-box family protein: 1.47
  Fold-change AT4G23030 MATE efflux protein-related: 1.37
  Fold-change AT4G23070 rhomboid family protein: 1.02
  Fold-change AT4G23810 WRKY family transcription factor: 0.71
  Fold-change AT4G24160 hydrolase, alpha/beta fold family protein: 1.13
  Fold-change AT4G25620 hydroxyproline-rich glycoprotein family protein: 0.87
  Fold-change AT4G25780 pathogenesis-related protein: 0.74
  Fold-change AT4G27970 C4-dicarboxylate transporter/malic acid transport family protein: 1.20
  Fold-change AT4G28240 wound-responsive protein-related: 0.77
  Fold-change AT4G28490 leucine-rich repeat transmembrane protein kinase, putative: 1.00
  Fold-change AT4G28703 expressed protein: 0.85
  Fold-change AT4G28780 GDSL-motif lipase/hydrolase family protein: 1.25
  Fold-change AT4G29070 expressed protein: 0.90
  Fold-change AT4G30080 transcriptional factor B3 family protein: 0.94
  Fold-change AT4G31020 expressed protein: 1.53
  Fold-change AT4G32280 auxin-responsive AUX/IAA family protein (IAA29): 0.66
  Fold-change AT4G33050 calmodulin-binding family protein: 0.99
  Fold-change AT4G33700 CBS domain-containing protein: 0.81
  Fold-change AT4G34610 homeodomain-containing protein: 0.86
  Fold-change AT4G36110 auxin-responsive protein: 2.35
  Fold-change AT4G36780 brassinosteroid signalling positive regulator-related: 0.71
  Fold-change AT4G37240 expressed protein: 1.23
  Fold-change AT4G37290 expressed protein: 0.90
  Fold-change AT4G37590 phototropic-responsive NPH3 family protein: 0.90
  Fold-change AT4G38840 auxin-responsive protein (SAUR14): 1.26
  Fold-change AT4G38850 auxin-responsive protein (SAUR-AC1): 1.43
  Fold-change AT4G38860 auxin-responsive protein (SAUR16): 1.38
  Fold-change AT4G39400 brassinosteroid insensitive 1 (BRI1): 0.96
  Fold-change AT5G02020 expressed protein: 0.99
  Fold-change AT5G05690 cytochrome P450 90A1 (CYP90A1) (CYP90) (CPD): 0.93
  Fold-change AT5G07690 myb family transcription factor (MYB29): 0.82
  Fold-change AT5G08130 basic helix-loop-helix (bHLH) family protein (BIM2): 0.79
  Fold-change AT5G12050 expressed protein: 0.73
  Fold-change AT5G13180 no apical meristem (NAM) family protein: 1.07
  Fold-change AT5G13740 sugar transporter family protein: 0.77
  Fold-change AT5G14730 expressed protein: 0.80
  Fold-change AT5G16200 50S ribosomal protein-related: 0.70
  Fold-change AT5G16980 NADP-dependent oxidoreductase: 1.15
  Fold-change AT5G18750 DNAJ heat shock N-terminal domain-containing protein: 1.03
  Fold-change AT5G19200 short-chain dehydrogenase/reductase (SDR) family protein: 1.22
  Fold-change AT5G19340 expressed protein: 0.68
  Fold-change AT5G24030 C4-dicarboxylate transporter/malic acid transport family protein: 1.43
  Fold-change AT5G24660 expressed protein: 1.33
  Fold-change AT5G25240 expressed protein: 1.21
  Fold-change AT5G25930 leucine-rich repeat family protein: 0.98
  Fold-change AT5G27350 sugar-porter family protein 1 (SFP1): 1.11
  Fold-change AT5G27670 histone H2A: 0.86
  Fold-change AT5G38310 expressed protein: 0.98
  Fold-change AT5G38990; AT5G39000 [AT5G38990, protein kinase family protein: 0.94
  Fold-change AT5G39050 transferase family protein: 1.35
  Fold-change AT5G39610 no apical meristem (NAM) family protein: 0.65
  Fold-change AT5G39970 expressed protein: 1.08
  Fold-change AT5G42830 transferase family protein: 0.87
  Fold-change AT5G47370 homeobox-leucine zipper protein 2 (HAT2): 0.94
  Fold-change AT5G48070 putative xyloglucan endotransglycosylase/hydrolase: 1.12
  Fold-change AT5G48540 33 kDa secretory protein-related: 1.01
  Fold-change AT5G51550 phosphate-responsive 1 family protein: 0.86
  Fold-change AT5G54490 calcium-binding EF-hand protein, putative: 0.37
  Fold-change AT5G54860 integral membrane transporter family protein: 0.92
  Fold-change AT5G55970 zinc finger (C3HC4-type RING finger) family protein: 1.03
  Fold-change AT5G56980 expressed protein: 0.75
  Fold-change AT5G57190 phosphatidylserine decarboxylase: 1.04
  Fold-change AT5G57780 expressed protein: 0.41
  Fold-change AT5G59080 expressed protein: 0.62
  Fold-change AT5G60200 Dof-type zinc finger domain-containing protein: 0.82
  Fold-change AT5G60270 lectin protein kinase family protein: 1.03
  Fold-change AT5G60630 expressed protein: 0.94
  Fold-change AT5G61600 encodes a member of the ERF (ethylene response factor): 0.46
  Fold-change AT5G62360 invertase/pectin methylesterase inhibitor family protein: 0.92
  Fold-change AT5G65310 homeobox-leucine zipper protein 5 (HB-5)/HD-ZIP transcription factor 5: 0.91
  Fold-change AT5G66420 expressed protein: 1.04
  Fold-change AT5G66590 allergen V5/Tpx-1-related family protein: 1.21
  Fold-change AT5G67450 zinc finger (C2H2 type) protein 1 (AZF1): 1.79
245479_at, Cluster 6
  Fold-change of gene AT4G16140 (proline-rich family protein): 0.83
245543_at, Cluster 7
  Fold-change of gene AT4G15260 (UDP-glucoronosyl/UDP-glucosyl transferase family protein): 1.01
245885_at, Cluster 5
  Fold-change of gene AT5G09440 (phosphate-responsive protein, putative): 0.58
246389_at, Cluster 10
  Fold-change of gene AT1G77380 (amino acid carrier): 0.94
246516_at, Cluster 5
  Fold-change of gene AT5G15740 (expressed protein): 0.95
247177_at, Cluster 5
  Fold-change of gene AT5G65300 (expressed protein): 0.25
247205_at, Cluster 10
  Fold-change of gene AT5G64890 (expressed protein): 0.97
247351_at, Cluster 9
  Fold-change of gene AT5G63790 (no apical meristem (NAM) family protein): 0.49
247444_at, Cluster 7
  Fold-change of gene AT5G62630 (expressed protein): 1.26
247601_at, Cluster 10
  Fold-change of gene AT5G60850 (Dof-type zinc finger domain-containing protein): 1.09
247704_at, Cluster 9
  Fold-change of gene AT5G59510 (expressed protein): 0.98
247774_at, Cluster 5
  Fold-change of gene AT5G58660 (oxidoreductase. 2OG-Fe(II) oxygenase family protein): 1.08
248190_at, Cluster 5
  Fold-change of gene AT5G54120 (expressed protein): 1.04
248191_at, Cluster 5
  Fold-change of gene AT5G54130 (calcium-binding EF hand family protein): 1.03
248282_at, Cluster 6
  Fold-change of gene AT5G52900 (expressed protein): 0.74
248646_at, Cluster 9
  Fold-change of gene AT5G49100 (expressed protein): 0.70
250012_x_at, Cluster 6
  Fold-change of gene AT5G18060 (auxin-responsive protein): 0.76
250493_at, Cluster 9
  Fold-change of gene AT5G09800 (U-box domain-containing protein): 0.80
250537_at, Cluster 8
  Fold-change of gene AT5G08565 (expressed protein): 1.06
250907_at, Cluster 5
  Fold-change of gene AT5G03670 (expressed protein): 0.60
251072_at, Cluster 5
  Fold-change of gene AT5G01740 (expressed protein): 0.53
251176_at, Cluster 10
  Fold-change of gene AT3G63380 (calcium-transporting ATPase): 0.87
251342_at, Cluster 9
  Fold-change of gene AT3G60690 (auxin-responsive family protein): 0.87
252586_at, Cluster 10
  Fold-change of gene AT3G45610 (Dof-type zinc finger domain): 0.90
252646_at, Cluster 5
  Fold-change of gene AT3G44610 (protein kinase family protein): 1.05
253255_at, Cluster 6
  Fold-change of gene AT4G34760 (auxin-responsive family protein): 0.81
253281_at, Cluster 7
  Fold-change of gene AT4G34138 (UDP-glucoronosyl/UDP-glucosyl transferase family protein): 1.17
253483_at, Cluster 5
  Fold-change of gene AT4G31910 (transferase family protein): 1.15
253617_at, Cluster 5
  Fold-change of gene AT4G30410 (expressed protein): 0.97
253629_at, Cluster 5
  Fold-change of gene AT4G30450 (glycine-rich protein): 0.88
253999_at, Cluster 9
  Fold-change of gene AT4G26200 (1-aminocyclopropane-1-carboxylate synthase): 0.29
255403_at, Cluster 6
  Fold-change of gene AT4G03400 (auxin-responsive GH3 family protein): 0.59
255443_at, Cluster 7
  Fold-change of gene AT4G02700 (sulfate transporter): 1.69
255926_at, Cluster 8
  Fold-change of gene AT1G22190 (AP2 domain-containing transcription factor): 0.83
256528_at, Cluster 6
  Fold-change of gene AT1G66140 (zinc finger (C2H2 type) family protein): 0.72
256762_at, Cluster 8
  Fold-change of gene AT3G25655 (expressed protein): 0.98
256818_at, Cluster 7
  Fold-change of gene AT3G21420 (oxidoreductase, 2OG-Fe(II) oxygenase family protein): 1.11
257066_at, Cluster 5
  Fold-change of gene AT3G18280 (protease inhibitor/seed storage/lipid transfer protein): 1.06
257506_at, Cluster 6
  Fold-change of gene AT1G29440 (auxin-responsive family protein): 0.69
257746_at, Cluster 5
  Fold-change of gene AT3G29200 (chorismate mutase, chloroplast (CM1)): 0.89
259364_at, Cluster 8
  Fold-change of gene AT1G13260 (DNA-binding protein RAV1 (RAV1)): 0.61
259773_at, Cluster 6
  Fold-change of gene AT1G29500 (auxin-responsive protein): 0.79
259783_at, Cluster 6
  Fold-change of gene AT1G29510 (auxin-responsive protein): 0.77
259784_at, Cluster 6
  Fold-change of gene AT1G29450 (auxin-responsive protein): 0.75
259787_at, Cluster 6
  Fold-change of gene AT1G29460 (auxin-responsive protein): 0.75
259875_s_at, Cluster 7
  Fold-change of gene AT1G76690; AT1G76680 ([AT1G76690, 12-oxophytodienoate reductase (OPR2)): 0.85
259985_at, Cluster 8
  Fold-change of gene AT1G76620 (expressed protein): 0.94
260243_at, Cluster 10
  Fold-change of gene AT1G63720 (expressed protein): 0.74
260727_at, Cluster 8
  Fold-change of gene AT1G48100 (glycoside hydrolase family 28 protein): 1.06
261023_at, Cluster 7
  Fold-change of gene AT1G12200 (flavin-containing monooxygenase family protein): 1.11
261203_at, Cluster 6
  Fold-change of gene AT1G12845 (expressed protein): 0.98
261768_at, Cluster 6
  Fold-change of gene AT1G15550 (gibberellin 3-beta-dioxygenase): 0.77
261892_at, Cluster 9
  Fold-change of gene AT1G80840 (WRKY family transcription factor): 0.27
262040_at, Cluster 6
  Fold-change of gene AT1G80080 (leucine-rich repeat family protein): 0.77
262050_at, Cluster 8
  Fold-change of gene AT1G80130 (expressed protein): 1.04
262505_at, Cluster 10
  Fold-change of gene AT1G21680 (expressed protein): 1.12
262543_at, Cluster 6
  Fold-change of gene AT1G34245 (expressed protein): 1.14
263126_at, Cluster 7
  Fold-change of gene AT1G78460 (SOUL heme-binding family protein): 0.88
264279_s_at, Cluster 7
  Fold-change of gene AT1G78820; AT1G78830 ([AT1G78820, curculin-like (mannose-binding) lectin family protein): 0.88
